{"source": "paper PMC2957699", "about": "“Iodothyronine Interactions with the System L1 Amino Acid Exchanger in 3T3-L1 Adipocytes” (Journal of Thyroid Research, 2010)", "assay_type_in_all_cases": "cell-based", "key": {"[1]": {"biological_target": "T1, LAT1 (System L1 catalytic subunit) (Mus musculus, UniProt Q9Z127)", "T1 construct": "gene Slc7a5; endogenous System L1 in 3T3-L1 adipocytes; with SLC3A2 (4F2hc/CD98)", "T1 sequence (Q9Z127 whole entry)": "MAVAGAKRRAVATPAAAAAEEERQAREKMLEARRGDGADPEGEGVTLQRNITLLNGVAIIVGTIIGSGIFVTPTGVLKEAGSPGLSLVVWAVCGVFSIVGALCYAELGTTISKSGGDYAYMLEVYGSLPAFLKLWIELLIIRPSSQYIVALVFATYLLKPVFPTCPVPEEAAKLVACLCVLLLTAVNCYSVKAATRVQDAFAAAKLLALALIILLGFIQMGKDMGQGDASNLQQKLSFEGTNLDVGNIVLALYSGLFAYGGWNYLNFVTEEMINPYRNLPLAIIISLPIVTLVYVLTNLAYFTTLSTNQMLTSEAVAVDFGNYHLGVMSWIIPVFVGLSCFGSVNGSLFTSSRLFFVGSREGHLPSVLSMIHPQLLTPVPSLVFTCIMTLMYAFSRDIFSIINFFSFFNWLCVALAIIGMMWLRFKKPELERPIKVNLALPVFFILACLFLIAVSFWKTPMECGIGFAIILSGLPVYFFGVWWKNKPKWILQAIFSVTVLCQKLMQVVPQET", "T1 sequence (P10852 whole entry partner)": "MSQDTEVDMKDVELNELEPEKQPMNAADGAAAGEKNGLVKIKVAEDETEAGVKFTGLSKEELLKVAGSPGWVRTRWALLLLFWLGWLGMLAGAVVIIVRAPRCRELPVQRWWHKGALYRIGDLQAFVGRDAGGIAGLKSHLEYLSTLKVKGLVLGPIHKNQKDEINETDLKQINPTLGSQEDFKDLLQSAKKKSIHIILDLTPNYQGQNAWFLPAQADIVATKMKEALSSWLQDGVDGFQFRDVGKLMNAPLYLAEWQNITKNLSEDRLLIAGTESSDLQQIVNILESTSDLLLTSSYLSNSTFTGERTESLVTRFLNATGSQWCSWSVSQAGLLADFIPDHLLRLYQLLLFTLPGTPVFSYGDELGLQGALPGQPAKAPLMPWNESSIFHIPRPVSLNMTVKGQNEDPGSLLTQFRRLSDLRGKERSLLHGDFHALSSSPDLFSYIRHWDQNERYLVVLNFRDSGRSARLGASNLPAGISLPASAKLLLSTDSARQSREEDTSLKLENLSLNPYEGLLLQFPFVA", "assay": "inhibition of […] [3H]phenylalanine uptake at […]", "settings": "read-out: % inhibition at 10 mM"}, "[2]": {"biological_target": "T1, LAT1 (System L1 catalytic subunit)", "assay": "saturable [3H]phenylalanine uptake (Km) in 3T3-L1 cells"}, "[3]": {"biological_target": "T1, LAT1 (System L1 catalytic subunit)", "assay": "trans stimulation of [3H]phenylalanine efflux; inhibition of phenylalanine and T3 uptake"}, "[4]": {"biological_target": "T1, LAT1 (System L1 catalytic subunit)", "assay": "inhibition of [3H]phenylalanine uptake ([…] at […]) and of leucine trans stimulated efflux", "settings": "read-out: % inhibition at 10 μM"}}}
{"smiles": "NC1(C(=O)O)CC2CCC1C2", "note": "(stereo not shown) [BCH, 2-aminobicyclo-(2,2,1)-heptane-2-carboxylic acid]", "values": [{"measurement": "inhibition at 10000 µM", "setting": "[1]", "value": "> 95", "unit": "%"}]}
{"smiles": "N[C@@H](Cc1ccccc1)C(=O)O", "note": "[L-phenylalanine]", "values": [{"measurement": "Km", "setting": "[2]", "value": 31, "unit": "µM"}]}
{"smiles": "CC(C)C[C@H](N)C(=O)O", "note": "[leucine]", "values": [{"measurement": "trans stimulation of [3H]phenylalanine efflux; inhibition of phenylalanine and T", "setting": "[3]", "value": "Efflux of pre-loaded L-[^3H]phenylalanine from 3T3-L1 adipocytes was trans stimulated in a concentration-dependent manner by external leucine"}]}
{"smiles": "N[C@@H](Cc1ccc(Oc2cc(I)c(O)c(I)c2)c(I)c1)C(=O)O", "note": "[rT3, Reverse L-triiodothyronine]", "values": [{"measurement": "inhibition at 10 µM", "setting": "[4]", "value": 57, "unit": "%"}]}
